Data published in PubChem BioAssay (NCI).
Several values for one entry are separate records, joined by “and”; a condition that tells them apart may be missing. Equal values may be shown once.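 Compound exposure: 48 hours, 5 concentrations, 96-well plates. At the GI50, growth is halved. TGI is the concentration that stops growth completely.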

System: MDA-MB-468 breast
Test: DTP human tumour cell line panel, 48 h

| Structure (SMILES) | GI50 | TGI |
| --- | --- | --- |
| CCCCCCCCCCCCCCCCCCn1cc[n+](C)c1 | 0.215 µM | 1.64 µM |
| CCc1ccc(CCC(=O)Nc2ncc(Cc3ccc(Cl)cc3)s2)o1 | 0.342 µM | – |
| COC12C=C/C(=C(/C(=O)OCc3ccccn3)C(=O)CCCCCCCCC3(OC)C=C/C(=C(/C(=O)OCc4ccccn4)C(=O)CCCCCCCC1)O3)O2 | 0.314 µM | 1.15 µM |
| CC1C(C)N(C(=O)CCl)c2ccccc2N1C(=O)CCl (centres undefined) | 0.296 µM | 1.21 µM |
| CC1=C2[C@@H](CC1)[C@]1(C)O[C@@](C(C)C)(C[C@H]1OC(=O)CO)[C@H]2OC(=O)C1CC1c1ccccc1 (some centres undefined) | 13.2 µM | 29.5 µM |
| NCCCC[C@@H]1NC(=O)[C@H](CC(=O)O)NC(=O)CNC(=O)[C@H](CCCN=C(N)N)NC(=O)[C@@H](N)CSSC[C@@H](C(=O)O)NC(=O)[C@H](CC(=O)O)NC(=O)[C@@H]2CCCN2C(=O)CNC1=O | > 100 µM | > 100 µM |
| COc1ncc(Nc2ncc([C@@H](C)N3CCN(S(C)(=O)=O)CC3)cc2-c2nc(C)nc(N)n2)cc1F | < 0.0148 µM | 0.16 µM |
| NC(=O)c1cc([N+](=O)[O-])c(Cl)c([N+](=O)[O-])c1Cl | 0.188 µM | 0.436 µM |
| Nc1nc([Se])c2ncn(C3OC(CO)C(O)C3O)c2n1 (centres undefined) | 50.2 µM | > 100 µM |
| COc1cc(/C=C/C(=O)/C=C/c2ccc(-n3ccnc3C)cc2)ccc1O | 2.06 µM | 4.72 µM |
| COc1cc(/C=N/Nc2ncnc3c2cnn3-c2ccccc2)ccc1O | 4.93 µM | > 25 µM |
| COC(=O)[C@H](Cc1cnc[nH]1)NC(=O)[C@@H](NC(=O)Nc1cc(C(F)(F)F)cc(C(F)(F)F)c1)C(C)C | 11.1 µM | 25.6 µM |
| COc1ccc(C/C(=C(\C)c2ccc(OCCN3CCCC3)cc2)c2ccc(OCCN3CCCC3)cc2)cc1 | 1.62 µM | 3.14 µM |
| CNC(=O)c1cc(Oc2ccc(NC(=O)Nc3ccc(Cl)c(C(F)(F)F)c3)c(F)c2)ccn1 | 2.06 µM and 1.67 µM | 5.58 µM and 7.93 µM |
| CC(C)(C)c1ccc(Oc2ccc(N)cn2)cc1 | 28.3 µM | > 100 µM |
| O=C(Nc1ccccc1)Nc1ccc2cc3ccc(NC(=O)Nc4ccccc4)cc3nc2c1 | 0.579 µM | 1.92 µM |
| CC1(C)CNc2cc(NC(=O)c3cccnc3NCc3ccncc3)ccc21 | 12.7 µM | 66.2 µM |
| Cc1ccccc1NC(=O)c1sc2nc(C)c(C(=O)/C=C/c3ccccc3)cc2c1N | 0.927 µM | 1.82 µM |
| CCC(C)[C@H](NC(=O)Nc1cc(C(F)(F)F)cc(C(F)(F)F)c1)C(=O)N[C@@H](Cc1cn(C)cn1)C(=O)OC (some centres undefined) | 0.476 µM | 0.971 µM |
| Cc1cccc2nc3ccccc3c(Nc3ccc(NS(C)(=O)=O)cc3)c12 | 8.53 µM | 26.3 µM |

| Structure (SMILES) | GI50 | TGI |
| --- | --- | --- |
| COc1cc(Nc2ncc(-c3ccccc3)o2)cc(OC)c1 | 7.94 µM | > 25 µM |
| CC(N)(Cc1c[nH]c2cccc(F)c12)C(=O)O (centres undefined) | > 1000 µM | > 1000 µM |
| COc1ccc2c(c1)[nH]c(=O)c1c3cccc(F)c3cn21 | 0.187 µM | 0.487 µM |
| CCN(CC)CCCNc1cc(OC)cc2nc3cc(Cl)ccc3nc12 | 1.15 µM | 2.67 µM |
| CNC(=O)c1c(NC(=O)c2ccc(C(C)(C)C)cc2)sc2c(CN(C)C)c(O)ccc12 | 1.67 µM | 3.36 µM |
| CCN(Cc1ccccc1)C1CCN(Cc2cc(Br)ccc2O)CC1 | 15.1 µM | 40.8 µM |
| COCc1c(-c2cc3cc(C)cc(OC)c3s2)c2c(N)ncnn2c1CN1CCNC(=O)C1 | 1.76 µM | 7.46 µM |
| CC1=C(c2ccccc2)C(O)(c2ccccc2)C(C)C1=O (centres undefined) | 4.28 µM | 40.3 µM |
| COc1ccc(CN2c3ccccc3Sc3ccccc32)c(C(F)(F)F)c1 | 0.275 µM | 13.6 µM |
| Nc1ccc(C2=CC(c3ccc(Cl)cc3)N3C=CSC3=N2)cc1 (centres undefined) | 1.9 µM | 4.29 µM |
| Cc1ccc(/C=N/Nc2nc(Nc3ccccc3)nc(-n3nc(C)cc3C)n2)cc1 | 3.63 µM | 17.1 µM |
| O=C(N/N=C\c1ccc(N(CCCl)CCCl)cc1[N+](=O)[O-])c1cccnc1 | > 100 µM | > 100 µM |
| COc1ccc2c(c1)c(-c1nc(-c3c[nH]c4ccncc34)cs1)cn2C | 0.442 µM | 1.85 µM |
| CNC(=O)c1c(NC(=O)c2ccc(C(C)(C)C)cc2)sc2c1CCC(=O)C2 | 0.411 µM | 2.07 µM |
| COc1ccc2c(c1OC)CO[C@@H]2[C@H]1c2c(cc3c(c2OC)OCO3)CCN1S(=O)(=O)c1cn(C)cn1 | 0.324 µM | 5.93 µM |
| CC1=C(SCCC(=O)OC(C[Se]C2=C(C)C(=O)c3ccccc3C2=O)C(=O)NCCCCCC(=O)OCc2ccccc2)C(=O)c2ccccc2C1=O (centres undefined) | 3 µM | 8.54 µM |
| CCC(C)Nc1ccc(N)cc1 (centres undefined) | 2.05 µM | 6.51 µM |
| COc1cccc(CC(C)=C(c2ccc(OCCN3CCCCC3)cc2)c2ccc(OCCN3CCCCC3)cc2)c1 | 0.641 µM | 2.71 µM |
| CCOC(=O)Oc1cc2c(c(OC)c1OC)-c1ccc(OC)c(=O)cc1C(NC(C)=O)CC2 (centres undefined) | < 0.01 µM | > 100 µM |
| COc1cc(OC)cc(-c2n/c(=C\c3c(O)[nH]c4ccc(OC)cc34)cc3c2=Nc2ccccc2-3)c1 | 12.1 µM | 29.8 µM |
